What was measured:
Format in all cases: cell-based
[1] = test system: Desulfovibrio longus 51456; experiment: H2S and Log (Growth) efficacy against SRB, 96-Well Plate Method
Procedure: (§1) A lyophilized Desulfovibrio alaskensis 14563, Desulfovibrio longus 51456, and Desulfovibrio gabonensis 700201 pure cultures received from ATCC were resuspended individually in 500 ul of MB 1250. Aseptically, the content was transferred to a 5-mL tube of MB1250 medium. The cultures were incubated in an anaerobic chamber at 30° C. for 72 hrs. Subsequently, an individual stock culture with a final concentration of 25% glycerol were prepared by adding equal volumes of culture and 50% glycerol. 1 ml of the cultures were then transferred to 2-ml cryogenic vials and stored at −80° C. The purity of the stock cultures was evaluated through PCR, by amplifying the 16S rDNA region, and thus, it was verified that the original ATCC sample was a pure culture. 48-hour cultures of ATCC Desulfovibrio alaskensis 14563, Desulfovibrio longus 51456, and Desulfovibrio gabonensis 700201 were prepared in an anaerobic chamber. Each culture was prepared as a 1:10 culture by taking 1 milliliter (mL) of a pure culture and inoculating 9 milliliters (mL) of fresh MB1250 media. The Desulfovibrio alaskensis 14563 and Desulfovibrio gabonensis 700201 were all grown at 30° C. and the Desulfovibrio longus 51456 culture was grown at 35° C.
(§2) After the 48-hour incubation, 600 microliters (μL) were taken from each culture and optical density (OD) was measured using a Thermofisher Spectronic 200 Spectrophotometer at 600 nm. Each culture was diluted to 0.05 OD600 in fresh MB1250 media and added to the 96 well plates. Edge wells were not used due to their inherent variability and evaporation of the media. Each of the components were added at their respective concentrations for a final volume of 500 μL per well. In Table 3, 6 and 7, the concentrations of the compound used for the experiments are listed. Each experiment was done with at least three replicates for different treatments and non-treatment controls. From these test plates, 200 μL were taken and placed into two separate plates for 3 and 6 days. Plates were then sealed with a titer-top and placed into anaerobic boxes and incubated in an anaerobic incubator at 30° C.
(§3) At each time point, sulfide samples were taken, and enumeration plates were made. Enumeration plates were made to determine the log growth in each dosed sample. For this process, enumeration plates were prepared by adding 180 μL fresh media MB1250 containing 0.01 wt % ferrous ammonium sulfate. 20 μL was taken from each well of the challenge plates and transferred to the enumeration plates using a 20-200 μL multichannel pipette. Enumeration plates were mixed three times using the multichannel pipette and serial diluted down the plate tenfold (20 μL into 180 μL). This serial dilution process was repeated for all challenge plate rows giving a total of 6 enumeration plates.
(§4) After 7 days these enumeration plates were read. The ferrous ammonium sulfate in each plate would be converted to iron sulfide, changing wells with SRB growth from clear to black. By counting the number of black wells in a row, the log growth from the original well in the challenge plate can be determined.
(§5) To determine hydrogen sulfide production in each sample, sulfide samples were also taken from each challenge plate. From each well, 9 μL were taken and added to 60 μL of 2% zinc acetate with 0.02% acetic acid. Then, 180 μL of milliQ water was added. 60 μL of stock solution 1 containing 64% sulfuric acid, <1% Dimethyl-4-phenylenediamine (DMPD), water to 100% was added to each well on the plates. This was followed by 3 μL of stock solution 3 containing 50% Iron (III) chloride. All chemicals are ordered from Fisher Scientific and used as received. These were mixed three times and read after 15 minutes. The plates were read at 670 nm using a Biotek microplate reader. Absorbance readings were converted to mM using a standard curve and this was converted to parts per million using the molar mass of sulfur. […]

[2] = test system: Desulfovibrio gabonensis 700201; experiment: as above
Procedure: as §1, §2, §3, §4, §5

[3] = test system: sulfate reducing bacteria; experiment: Efficacy in inhibiting H2S production from sulfate reducing bacteria; details: anaerobic conditions
Procedure: To understand the hydrogen sulfide inhibition efficacy of the N-hydroxycarboxamide compounds of the present invention, several compounds were tested. Some compounds that can be used in this H2S inhibiting composition are disclosed in Table 2. For the testing procedures, the compounds were dissolved in DMSO, resulting in a stock solution of about 8000-100000 ppm, which was subsequently diluted in 96-well plates or 10 mL serum vials containing media and selected culture to give varying concentrations from 0.09 to 1000 ppm of the compounds in final solution for efficacy testing.
Strains of commonly found bacteria were used for testing the efficacy of the compounds, viz. Desulfovibrio alaskensis, Desulfovibrio longus and Desulfovibrio gabonensis. Media for the cultures was also prepared by using a standard method. The cultures were aseptically used and incubated under anaerobic conditions. Two well established methods were used for testing various compounds:
The compounds C1, C12, C14, C15 and C16 were tested individually to understand each of their efficacies in inhibiting the H2S production from sulfate reducing bacteria, under standard temperature and pressure conditions. The efficacy of compounds C14 and C15 against hydrogen sulfide production are disclosed in Example 1, Tables 6 and 7.

O=C(CN1C(=O)c2cccc3cccc(c23)C1=O)NO [C1]
H2S ([1]; 3 days, 6.4 PPM): 9.8 PPM
Log (Growth) ([1]; 3 days, 6.4 PPM): 0.0
H2S ([1]; 3 days, 12.8 PPM): 9.3 PPM
Log (Growth) ([1]; 3 days, 12.8 PPM): 0.0
H2S ([1]; 3 days, 25.6 PPM): 9.1 PPM
Log (Growth) ([1]; 3 days, 25.6 PPM): 0.0
H2S ([1]; 3 days, 51.3 PPM): 8.8 PPM
Log (Growth) ([1]; 3 days, 51.3 PPM): 0.0
H2S ([1]; 3 days, 102.5 PPM): 8.6 PPM
Log (Growth) ([1]; 3 days, 102.5 PPM): 0.0
H2S ([1]; 3 days, 205.0 PPM): 8.7 PPM
Log (Growth) ([1]; 3 days, 205.0 PPM): 0.0
H2S ([1]; 6 days, 6.4 PPM): 8.1 PPM
Log (Growth) ([1]; 6 days, 6.4 PPM): 0.0
H2S ([1]; 6 days, 12.8 PPM): 7.9 PPM
Log (Growth) ([1]; 6 days, 12.8 PPM): 0.0
H2S ([1]; 6 days, 25.6 PPM): 7.3 PPM
Log (Growth) ([1]; 6 days, 25.6 PPM): 0.0
H2S ([1]; 6 days, 51.3 PPM): 7.2 PPM
Log (Growth) ([1]; 6 days, 51.3 PPM): 0.0
H2S ([1]; 6 days, 102.5 PPM): 7.5 PPM
Log (Growth) ([1]; 6 days, 102.5 PPM): 0.0
H2S ([1]; 6 days, 205.0 PPM): 8.1 PPM
Log (Growth) ([1]; 6 days, 205.0 PPM): 0.0
H2S ([2]; 3 days, 6.4 PPM): 12.4 PPM
Log (Growth) ([2]; 3 days, 6.4 PPM): 0.0
H2S ([2]; 3 days, 12.8 PPM): 12.1 PPM
Log (Growth) ([2]; 3 days, 12.8 PPM): 0.0
H2S ([2]; 3 days, 25.6 PPM): 11.1 PPM
Log (Growth) ([2]; 3 days, 25.6 PPM): 0.0
H2S ([2]; 3 days, 51.3 PPM): 12.3 PPM
Log (Growth) ([2]; 3 days, 51.3 PPM): 0.0
H2S ([2]; 3 days, 102.5 PPM): 10.5 PPM
Log (Growth) ([2]; 3 days, 102.5 PPM): 0.0
H2S ([2]; 3 days, 205.0 PPM): 10.0 PPM
Log (Growth) ([2]; 3 days, 205.0 PPM): 0.0
H2S ([2]; 6 days, 6.4 PPM): 18.1 PPM
Log (Growth) ([2]; 6 days, 6.4 PPM): 0.0
H2S ([2]; 6 days, 12.8 PPM): 10.4 PPM
Log (Growth) ([2]; 6 days, 12.8 PPM): 0.0
H2S ([2]; 6 days, 25.6 PPM): 9.4 PPM
Log (Growth) ([2]; 6 days, 25.6 PPM): 0.0
H2S ([2]; 6 days, 51.3 PPM): 8.4 PPM
Log (Growth) ([2]; 6 days, 51.3 PPM): 0.0
H2S ([2]; 6 days, 102.5 PPM): 8.6 PPM
Log (Growth) ([2]; 6 days, 102.5 PPM): 0.0
H2S ([2]; 6 days, 205.0 PPM): 8.5 PPM
Log (Growth) ([2]; 6 days, 205.0 PPM): 0.0
efficacy for inhibiting hydrogen sulfide production [3]: highest efficacy
